# From article PMC9221546, “New Phenylglycinamide Derivatives with Hybrid Structure as Candidates for New Broad-Spectrum Anticonvulsants” (Cells, 2022)
# Tests used:
# GABAA ion channel = GABAA ion channel [3H]GABA binding (agonist radioligand); conditions: 100 µM; rat cerebral cortex
# Protocol: (§1) Binding/functional studies were carried out commercially in Eurofins Laboratories (Poitiers, France) and Eurofins Panlabs Discovery Services Taiwan, Ltd. (New Taipei City, Taiwan) using testing procedures that were reported previously (for details see Table S2).
# (§2) Table S2. Radioligand binding and functional assays. […]
# GABAA ion channel [3H]GABA (agonist radioligand) […]
# (§3) TRPV1 (VR1) (h) (antagonist effect) […]
# (§4) Assays were performed commercially in Eurofins Laboratories (Poitiers, France) or Eurofins Panlabs Discovery
# (§5) Services Taiwan, Ltd. (New Taipei City, Taiwan). […]
# GABA transporter = GABA transporter binding (antagonist radioligand); conditions: 100 µM; rat cerebral cortex
# Protocol: as §1, §2
# GABA transporter (antagonist radioligand) […]
# as §3, §4, §5
# [1] = test system: fast voltage-gated sodium channels in rat prefrontal cortex pyramidal neurons; assay: Patch-clamp of fast sodium currents; type: cell-based; conditions: control = 1.0, n = 7
# Protocol: The methodology of slice preparation, slice preincubation, and patch-clamp technique was the same as in our previous studies. Compound 53 was tested at a concentration of 10 µM.
# Thus, we determined the influence of 53 on fast voltage-gated sodium channels in rat prefrontal cortex pyramidal neurons (at a concentration of 10 μM) using the patch-clamp technique. Maximal currents were evoked by rectangular voltage steps to 0 mV. […] The effect was not strong, but statistically significant (1.0 in the control and 0.83 ± 0.03 after the application of 53, p < 0.01). It was possible to obtain partial wash-out (0.86 ± 0.03 and the current were normalized to the control level, n = 7, Figure 5).
# Figure 5 (A) The influence of compound 53 on sodium current is shown on an example neuron. The current was evoked once every ten seconds by a rectangular voltage-step. […] (B) Example of the sodium current recordings in the control (black trace), after the application of the tested compound (blue trace), and after wash-out (red trace). (C) The averaged normalized maximal current amplitudes in the control, in the presence of 53, and after wash-out. The data were analyzed with a nonparametric repeated measures ANOVA followed by Dunn’s post hoc test. * p < 0.01 (n = 7).
# [2] = PAMPA permeability (Pre-coated PAMPA Plate System Gentest); type: in vitro ADME; conditions: read-out: Pe (permeability coefficient) ± SD
# From the text: Caffeine (CFN) and norfloxacin (NFX) were used as the high- and low-permeable references, respectively.
# mice = assay: Capsaicin-induced hypothermia model / core body temperature; type: in vivo; conditions: i.p. 15 min before capsaicin 5 mg/kg; compound 60 50 mg/kg, BCTC 20 mg/kg
# Protocol: Capsaicin was dissolved in 1% DMSO and administered at a dose of 5 mg/kg at a time point 0 min. Compound 60 and BCTC (positive control) were suspended in 1% Tween 80 and administered 15 min before capsaicin (at time point -15 min). All compounds were injected i.p. at a constant volume of 10 mL/kg. Control animals received the respective vehicles (1% DMSO or 1% Tween 80). Changes in the rectal temperature were measured using an electronic thermometer (ThermoWorks, Alpine, UT, USA) by inserting the rectal probe to a depth of ~2 cm into the rectum of the mouse. The measurements were taken at −15, 0, 15, 30, 60, 90, 120, and 180 min. The differences in the rectal temperature from baseline (time -15 min for groups receiving compound 60 and BCTC in combination with vehicle or time 0 min for groups receiving vehicle and capsaicin or compound 60 and BCTC in combination with capsaicin) to the respective time point ΔT (°C) were then calculated and analyzed. The results are shown in Figure 4 (see Section 3 Results and Discussion).
# Figure 4 Effects of compound 60 and BCTC alone (A) or in combination with capsaicin (B) on the core body temperature in mice. Capsaicin (CPS) was injected at 0 min, as indicated by the arrow. Compound 60 or BCTC were administered 15 min prior to CPS injection. The temperature was measured at −15, 0, 15, 30, 60, 90, 120, and 180 min. Since body temperature returned to control values 60 min after CPS injection, subsequent measurements are not shown. Control animals received vehicles (1% DMSO or 1% Tween 80). All the compounds were administered i.p. Each experimental group consisted of seven to eight animals. The data are presented as the mean differences (ΔT) in rectal temperature from baseline (time −15 for A and time 0 for B) to the respective time point. The data were analyzed with one-way ANOVA followed by Tukey’s post hoc test. ** p < 0.01, *** p < 0.001, **** p < 0.0001 vs. the control group; ^#### p < 0.0001 vs. the CPS-treated group.
SMILES,"% Inhibition of Control Specific Binding, GABAA ion channel (GABAA ion channel)","% Inhibition of Control Specific Binding, GABA transporter (GABA transporter)",normalized maximal amplitude of sodium current after application ([1]; 10 μM),normalized maximal amplitude of sodium current after wash-out ([1]; after 10 μM),melting point [°C],Papp [2] [×10⁻⁶ cm/s],effect on capsaicin-induced hypothermia (co-administration) (mice)
"CC(=O)NC(C(=O)N1CCN(c2cccc(C(F)(F)F)c2)CC1)c1ccccc1 (stereo not shown) [Compound 53, N-(2-oxo-1-phenyl-2-(4-(3-(trifluoromethyl)phenyl)piperazin-1-yl)ethyl)acetamide]",−1.1 (100) %,2.8 (100) %,0.83 ± 0.03,0.86 ± 0.03,131.8 to 132.5,–,–
"CC(=O)NC(C(=O)N1CCN(c2cccc(OC(F)(F)F)c2)CC1)c1ccccc1 (stereo not shown) [Compound 60, N-(2-oxo-1-phenyl-2-(4-(3-(trifluoromethoxy)phenyl)piperazin-1-yl)ethyl)acetamide]",–,–,–,–,–,9.15 ± 0.78,did not affect the capsaicin-induced hypothermia
